Assay results: patent US20050137215A1, “[C]-fused bicyclic proline derivatives and their use for treating arthritic conditions” (priority 2003, published 2005)
Counter-ions that a name gives are not always drawn.

How the values were obtained:
[1] = system: Monosodium Iodoacetate-Induced Osteoarthritis in Rat Model of Joint Cartilage Damage; test: Monosodium iodoacetate-induced osteoarthritis in rat (MIA Rat), loss of hind limb joint function; assay type: in vivo; details: male Wistar rats, MIA 1 mg/joint, 10 mg/kg/day subcutaneously via osmotic pump
Text: Monosodium Iodoacetate-Induced Osteoarthritis in Rat Model of Joint Cartilage Damage (“MIA Rat”):
One end result of the induction of osteoarthritis in this model, as determined by histologic analysis, is the development of an osteoarthritic condition within the affected joint, as characterized by the loss of Toluidine blue staining and formation of osteophytes. Associated with the histologic changes is a concentration-dependent degradation of joint cartilage, as evidenced by affects on hind-paw weight distribution of the limb containing the affected joint, the presence of increased amounts of proteoglycan or hydroxyproline in the joint upon biochemical analysis, or histopathological analysis of the osteoarthritic lesions.
The invention compounds typically are not effective for relieving joint pain when administered in an acute model, such as the instant MIA Rat model, which has a duration of just 14 or 28 days.
Generally, In the MIA Rat model on Day 0, the hind-paw weight differential between the right arthritic joint and the left healthy joint of male Wistar rats (150 g) are determined with an incapacitance tester, model 2KG (Linton Instrumentation, Norfolk, United Kingdom). The incapacitance tester has a chamber on top with an outwardly sloping front wall that supports a rat's front limbs, and two weight sensing pads, one for each hind paw, that facilitates this determination. Then the rats are anesthetized with isofluorine, and the right, hind leg knee joint is injected with 1.0 mg of mono-iodoacetate (“MIA”) through the infrapatellar ligament. Injection of MIA into the joint results in the inhibition of glycolysis and eventual death of surrounding chondrocytes. The rats are further administered either an invention compound or vehicle (in the instant case, water) daily for 14 days or 28 days.
The invention compound is typically administered at a dose of 30 mg of per kilogram of rat per day (30 mg/kg/day), but may be administered at other doses such as, for example, 10 mg/kg/day, 60 mg/kg/day, 90-mg/kg/day, or 100 mg/kg/day according to the requirements of the invention compound being studied. It is well within the level of ordinary skill in the pharmaceutical arts to determine a proper dosage of an invention compound in this model.
Administration of an invention compound in this model is optionally by oral administration or by intravenous administration via an osmotic pump. After 7 and 14 days for a two week study, or 7, 14, and 28 days for a four week study, the hind-paw weight distribution is again determined. Typically, the animals administered vehicle alone place greater weight on their unaffected left hind paw than on their right hind paw, while animals administered an invention compound show a more normal (i.e., more like a healthy animal) weight distribution between their hind paws. This change in weight distribution was proportional to the degree of joint cartilage damage. Percent inhibition of a change in hind paw joint function is calculated as the percent change in hind-paw weight distribution for treated animals versus control animals. For example, for a two week study, [formula] wherein: ΔWC is the hind-paw weight differential between the healthy left limb and the arthritic limb of the control animal administered vehicle alone, as measured on Day 14; and • ΔWG is the hind-paw weight differential between the healthy left limb and the arthritic limb of the animal administered an invention compound as measured on Day 14.
Administration via osmotic pump is preferable for screening compounds. In a particular experiment, monosodium iodoacetate (“MIA”) (1 mg/joint) was injected through the infrapatellar ligament of the right knee of anesthetized male, Wistar rats. The contralateral control knee was injected with 50 μL of physiologic saline. […]

leucine transport system = leucine transport system (Cricetulus griseus, UniProt G3GRU9); test: Leucine transport system binding assay (LTSBA), [3H]leucine uptake in CHO K1 cells; assay type: cell-based; details: conclusion from Table 3
Chain of leucine transport system (G3GRU9 entry or part of it): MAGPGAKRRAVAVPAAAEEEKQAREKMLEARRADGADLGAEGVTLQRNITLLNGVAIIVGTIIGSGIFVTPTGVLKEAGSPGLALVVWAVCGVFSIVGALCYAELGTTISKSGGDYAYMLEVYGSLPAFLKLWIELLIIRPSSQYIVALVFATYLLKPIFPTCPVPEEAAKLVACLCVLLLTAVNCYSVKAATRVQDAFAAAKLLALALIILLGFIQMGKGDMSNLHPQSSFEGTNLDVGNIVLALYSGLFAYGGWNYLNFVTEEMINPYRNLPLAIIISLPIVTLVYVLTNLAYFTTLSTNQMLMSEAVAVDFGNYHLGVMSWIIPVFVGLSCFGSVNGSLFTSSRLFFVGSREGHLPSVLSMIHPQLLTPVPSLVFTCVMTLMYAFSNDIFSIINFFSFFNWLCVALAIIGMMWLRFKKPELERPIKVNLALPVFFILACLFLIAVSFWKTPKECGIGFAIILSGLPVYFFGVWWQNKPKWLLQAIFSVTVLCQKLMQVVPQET
Chain of leucine transport system (A0A9J7CH39 entry or part of it, further chain): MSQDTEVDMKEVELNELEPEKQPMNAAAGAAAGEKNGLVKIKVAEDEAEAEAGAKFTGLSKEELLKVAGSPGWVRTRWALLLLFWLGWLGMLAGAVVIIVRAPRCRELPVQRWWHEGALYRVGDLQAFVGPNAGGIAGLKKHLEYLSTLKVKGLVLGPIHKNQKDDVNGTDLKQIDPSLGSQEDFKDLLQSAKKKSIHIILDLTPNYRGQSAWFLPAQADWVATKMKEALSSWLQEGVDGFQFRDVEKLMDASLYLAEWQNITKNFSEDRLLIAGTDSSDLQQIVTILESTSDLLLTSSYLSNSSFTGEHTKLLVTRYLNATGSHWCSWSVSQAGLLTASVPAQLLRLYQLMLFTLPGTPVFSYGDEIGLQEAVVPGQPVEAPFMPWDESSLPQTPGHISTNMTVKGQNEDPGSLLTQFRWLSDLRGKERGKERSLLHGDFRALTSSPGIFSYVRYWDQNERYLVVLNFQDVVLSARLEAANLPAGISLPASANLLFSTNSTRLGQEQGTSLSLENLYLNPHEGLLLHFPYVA
Experimental: Leucine Transport System Binding Assay (“LTSBA”) The sodium-containing buffer for transport assay was phosphate buffered saline (“PBS”) consisting of 137 mM NaCl, 2.7 mM KCl, 10.6 mM Na2HPO4, and 1.5 mM KH2PO4. The sodium-free buffer had equimolar amounts of choline chloride and choline phosphate in place of NaCl and […], respectively. This buffer is referred to as PBC. Prior to use, both PBS and PBC buffers (pH 7.4) were supplemented with 5.6 mM D-glucose, 0.49 mM MgCl2, and 0.9 mM CaCl2 (GMC). For cultured monolayer cells (in general, CHO K1 cells), the cluster tray transport assay was used as described previously (Su et al, J. Neurochem., 1995; 64:2125-2131, and references therein). […] The initial transport rates were determined by measuring uptake of tracer [3H] […] Secondary analysis of the initial velocity kinetic curves were determined by non linear regression analysis, using the equation: log V=log {[Vmax.S/(Km+S)]+P.[S]} where V, S, Vmax, and Km have their conventional meanings, and P represents the first order rate constant describing the nonsaturable uptake. An IC50 was determined as percentage inhibition of saturable leucine uptake. […] They were calculated by subtracting the corresponding substrate uptake rates in the presence of 10 mM excess unlabeled leucine from the total uptake rates. […] The efflux was calculated as percentage of the intracellular labeled substrate at zero time. […]

alpha-2-delta receptor 1 = alpha-2-delta receptor 1 (Sus scrofa, UniProt A0A287BIN3); test: [3H]Gabapentin A2DR1 binding assay; design: species or system pig; details: Biological Method 4; read-out: A2DR1 IC50, displacement of [3H]-gabapentin
Text: (§1) [^3H]Gabapentin A2DR1 and A2DR2 Binding Assays (“A2DR1” and “A2DR2”, Respectively)
(§2) HEK 293 recombinant cells expressing A2DR1 or A2DR2 protein are harvested and washed in phosphate buffered saline (“PBS”). The cells are centrifuged and resuspended in tris(hydroxymethyl)aminomethane-ethylenediaminetetraacetic acid (“Tris-EDTA” or “TE”) buffer containing Roche Complete Protease Inhibitor Cocktail. The cells are homogenized, centrifuged at 3000×g, and the supernatant centrifuged again at 50,000×g. The resulting pellet is resuspended and homogenized in TE. Following determination of A2DR1 or A2DR2 protein concentration, aliquots are stored at −70° C. until the day of testing (membrane preparation may be used for at least 6 months).
(§3) In one version, the binding assay is set up in a 96-well format using deep-well polypropylene plates. […] Non-specific binding for each plate is determined by the addition of 10 μM of pregabalin instead of test compound in a few of the 96 wells. […] The mats are placed into plastic pouches, scintillation cocktail is added, the pouches are sealed, and radioactivity for each sample is counted.
(§4) Specific binding values for each concentration are transformed and then analyzed by a 4-parameter nonlinear regression equation provided by Prism graphics software by Graph Pad to determine IC50 values by conventional means.
Displacement of [3H]-gabapentin from an alpha-2-delta receptor-1 or an alpha-2-delta receptor-2 by certain invention compounds is evidenced below in Table 2. In Table 2, the displacement was determined according to one of the above Biological Methods 4 or 6, and reported as an IC50 in micromolar concentration of invention compound in the columns labeled “A2DR1 IC50 (μM),” “A2DR2 IC50 […],” and “GABAPAA IC50 (μM),” respectively, for a reference compound, racemic octahydroisoindole-2-carboxylic acid (“OHIII2CA”) and certain invention compounds, which are referenced by Compound Example number in the column labeled “Compound Example No.”.

alpha-2-delta receptor 2 = alpha-2-delta receptor 2 (UniProt A0A8W4FF87); test: [3H]Gabapentin A2DR2 binding assay; design: species or system pig; details: Biological Method 4; read-out: A2DR2 IC50, displacement of [3H]-gabapentin
Text: as §1, §2, §3
Specific binding values for each concentration are transformed and then analyzed by a 4-parameter nonlinear regression equation provided by Prism graphics software by Graph Pad to determine IC50 values by conventional means. […]

[2] = molecular target: alpha-2-delta receptors, membrane from pig cortex (Sus scrofa, UniProt O77773); test: [3H]Gabapentin A2DR binding assay (GABAPAA / GABAP); details: Biological Method 6, pig cortex membrane; read-out: GABAPAA IC50, displacement of [3H]-gabapentin
Chain of alpha-2-delta receptors, membrane from pig cortex (O77773 25-1091): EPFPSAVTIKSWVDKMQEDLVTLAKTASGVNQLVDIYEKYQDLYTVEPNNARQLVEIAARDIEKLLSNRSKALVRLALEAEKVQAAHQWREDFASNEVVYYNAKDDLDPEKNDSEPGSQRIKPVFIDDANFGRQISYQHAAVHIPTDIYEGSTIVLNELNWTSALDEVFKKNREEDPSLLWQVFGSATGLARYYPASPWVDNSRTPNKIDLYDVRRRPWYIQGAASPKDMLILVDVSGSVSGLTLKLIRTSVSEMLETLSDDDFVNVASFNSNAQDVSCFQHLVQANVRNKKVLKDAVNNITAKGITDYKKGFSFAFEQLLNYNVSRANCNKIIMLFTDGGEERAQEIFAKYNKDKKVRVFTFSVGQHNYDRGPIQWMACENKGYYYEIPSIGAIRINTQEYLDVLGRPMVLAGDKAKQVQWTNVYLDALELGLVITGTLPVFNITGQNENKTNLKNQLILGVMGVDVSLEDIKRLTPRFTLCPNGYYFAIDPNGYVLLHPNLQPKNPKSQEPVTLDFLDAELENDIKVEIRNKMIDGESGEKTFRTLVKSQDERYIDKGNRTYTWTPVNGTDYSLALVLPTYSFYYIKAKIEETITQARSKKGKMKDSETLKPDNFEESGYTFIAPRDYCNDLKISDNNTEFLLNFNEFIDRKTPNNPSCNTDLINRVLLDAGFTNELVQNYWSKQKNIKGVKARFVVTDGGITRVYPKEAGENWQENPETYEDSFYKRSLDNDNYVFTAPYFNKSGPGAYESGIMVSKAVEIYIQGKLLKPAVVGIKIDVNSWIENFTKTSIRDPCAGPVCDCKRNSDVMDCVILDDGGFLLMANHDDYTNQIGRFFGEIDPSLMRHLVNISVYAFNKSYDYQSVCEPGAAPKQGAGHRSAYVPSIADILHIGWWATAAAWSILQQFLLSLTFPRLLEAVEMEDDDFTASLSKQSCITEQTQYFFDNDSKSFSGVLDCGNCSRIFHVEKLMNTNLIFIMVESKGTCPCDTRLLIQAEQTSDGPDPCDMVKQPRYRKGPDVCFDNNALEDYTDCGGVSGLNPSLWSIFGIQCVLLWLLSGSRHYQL
Experimental: In one version, the binding assay is set up in a 96-well format using deep-well polypropylene plates. In a total volume of 500 μL, the following additions are made: 250 μL buffer [10 mM N-2-hydroxyethylpiperazine-N′-2-ethanesulfonic acid (“HEPES”), pH 7.4], 25 μL [3H]gabapentin (10 nM final concentration), 200 μL thawed tissue membrane preparation from Step (1) (˜40 μg protein), and 25 μL of test compound at 7 test dilutions (for example, 0.001, 0.01, 0.03, 0.1, 0.3, 1.0, and 10 μM concentrations). Non-specific binding for each plate is determined by the addition of 10 μM of pregabalin instead of test compound in a few of the 96 wells. Following incubation for 45 minutes at 21° C., the contents of the wells are filtered under vacuum onto glass filter/B (“GF/B”) filter mats and then washed 4×1 mL with chilled 50 mM tris(hydroxymethyl)aminomethane (“Tris”) HCl, pH 6.9. The mats are placed into plastic pouches, scintillation cocktail is added, the pouches are sealed, and radioactivity for each sample is counted.
as §4
[^3H]Gabapentin A2DR Binding Assay (“GABAPAA” or “GABAP”) […]

SMILES | melting point | % I @ 10 mg/kg/day (%) (± SEM): inhibition of loss of hind limb joint function in MIA at Day 14 [1] | further results
O=C(O)[C@@]12CCCN1C[C@H]1CCCC[C@H]12 (racemic) (as salt: hydrochloride) | 250 to 255 °C |  | 
CC12CCCCC1CNC2C(=O)O (centres unmarked) [Example B4] |  | 13% | 
Cl.O=C(O)N1CC2CCCCC2C1 (centres unmarked) [OHII2CA HCl, octahydroisoindole-2-carboxylic acid hydrochloride] |  |  | binding to the leucine transport system (in words) (leucine transport system): weakly bind or do not bind
CN1CC2CCCCC2C1(C)C(=O)O (centres unmarked) [Example B1] |  | 32% | 
O=C(O)[C@@H]1NC[C@@H]2[C@H]1[C@H]1CC[C@@H]2O1 (racemic) | 188 to 190 °C |  | 
O=C(O)C1NCC2C3CCC(CC3)C12 (centres unmarked) [Example R3] |  | 20% | 
O=C(O)C1NCC2C1CCC2(F)F (centres unmarked) | 200 to 205 °C (dec.) |  | 
O=C(O)[C@@]12CCCN1C[C@H]1CCCC[C@H]12 [Example M1] |  |  | IC50 (alpha-2-delta receptor 1): ≥ 10 µM
CC1(C)N[C@H](C(=O)O)[C@@H]2CCCC[C@H]21 (racemic) [Example B5] |  | 32% | IC50 (alpha-2-delta receptor 2): ≥ 10 µM; IC50 (alpha-2-delta receptor 1): ≥ 10 µM
C[C@]1(C(=O)O)NC[C@H]2CCCC[C@H]21 [Example B2] |  | −5% | IC50 (alpha-2-delta receptor 2): ≥ 10 µM; IC50 (alpha-2-delta receptor 1): ≥ 10 µM
CN1C[C@H]2C3CCC(CC3)[C@H]2[C@@H]1C(=O)O [Example R2] |  | −20% | 
O=C(O)N1CC2CCCCC2C1 (racemic) [OHII2CA, racemic octahydroisoindole-2-carboxylic acid] |  |  | IC50 [2]: 0.03 µM
COC1CC2CNC(C(=O)O)C2CC1OC (centres unmarked) | 235 to 241 °C (dec.) |  | 
